Where two headings read alike, the source gives them in different places.
Columns and labels:
[1] = tested on: cellular AMPK; assay: p-ACC(Ser79) ELISA in K562 cell lysates (glucose-free media, 2-DG); type: cell-based; conditions: K562, dose response, FIG. 2B
Experimental: FIGS. 2A and 2B are a series of graphs showing the effects of compounds of the present disclosure on cellular levels of p-ACC(Ser79) in K562 cells. FIG. 2A Quantitative ELISA determination of p-ACC(Ser79) levels in K562 lysates (1.0 mg mL^−1 total protein) following growth in glucose-free media for 24 h, 2-DG (12 mM) treatment for 1 h followed by treatment with inhibitor compounds at 5.0 μM for 2 h. Relative p-ACC levels are reported as a percentage of levels resultant from DMSO control treatment. […] Cells were collected, washed with PBS and lysed on ice in lysis buffer containing 1% Triton X (Cell Signaling). Lysates were someated (1×5 seconds) and centrifuged for 10 minutes at 10,000 rpm and 4° C., and the protein concentration in supernatants was determined by Lowry assay. Lysates were diluted with ELISA PathScan® sample diluent to a final volume of 100 μL and protein concentration of 1.0 mg/ml prior to use. The concentration of p-ACC (Ser79) was determined using an enzyme-linked immunosorbent assay according to recommended protocol (Cell Signaling, ELISA PathScan® phospho-Acetyl-CoA Carboxylase (Ser79)) and expressed as a relative percentage of the DMSO control.
The AMPK substrate ACC is used as a biomarker for the relative activity of AMPK, and the levels of p-ACC(Ser79) were measured by ELISA in the absence or presence of the compounds to determine the compounds' effects on cellular AMPK activity. The presence of total AMPK, p-AMPK, total ACC, and p-ACC was measured by Western blot in a panel of leukemic cell lines grown in glucoe competent or glucose-free media. […] The cell lysates from K562 cells grown in glucose-free media in the presence 2-DG and treated with compounds of the present disclosure were analyzed by the p-ACC(Ser79) ELISA to determine the effect of the compounds on cellular AMPK activity.

[2] = target: AMPK(α2) (Homo sapiens (Human), UniProt P54646); assay: LANCE Eu TR-FRET recombinant kinase assay, AMPK(α2); type: biochemical; conditions: mean±S.D. (n=3); ATP 20 μM
Experimental: (§1) Assays were performed at 25° C. in a reaction mixture consisting of 2.5 μL serially diluted inhibitor solution, 2.5 μL kinase, 2.5 μL ATP and 2.5 μL substrate. Reagents were incubated for 1 hr before the reaction was halted through the addition of EDTA (10 mM) after which Eu anti-phospho-CREB (Ser133) antibody (PerkinElmer) was added at a final concentration of 2 nM for 1 hr. […] (n=3)).

[3] = target: AMPKα1 (Homo sapiens (Human), UniProt Q13131); assay: LANCE Eu TR-FRET recombinant kinase assay, AMPK(α1); type: biochemical
Experimental: as §1

[4] = tested on: K562 cells; assay: MTS cell viability assay in K562 cells; type: cell-based; conditions: Homo sapiens; K562, RPMI-1640; Table 2 head prints 24 h, method and FIG. 3A legend 72 hours
Experimental: (§2) The cells were incubated with inhibitors for 24 hours, before the plates were equilibrated to room temperature and 100 μL CellTiter-Glo reagent was added. […] Luminescent signal was plotted against the inhibitor log-dose and evaluated by a non-linear regression to determine half-maximal effect concentration (EC50) values, where possible.
An MTS assay was utilized to assess the effect of inhibitors on K562 viability.

[5] = tested on: K562 cells; assay: CellTox green cellular toxicity assay in K562 cells (glucose-free media); type: cell-based; conditions: Homo sapiens
Description: Fluorescence was plotted against inhibitor log-dose and evaluated by a non-linear regression to determine half-maximal effect concentration (EC50) values, where possible.
(§3) In order to increase the reliance of the cells on AMPK function, assays were needed that could be performed under glucose-free conditions. Therefore in order to elucidate the mechanism of action of the AMPK inhibitors, a CellTiter-Glo cell viability assay (FIG. 3B), which provide a readout proportional to ATP concentration, and thus, cellular viability, as well as a CellTox green cellular toxicity assay (FIG. 3C and FIG. 3D), which contain a dye that fluoresces upon DNA-binding in cells with impraied membrane integrity due to cytotoxicity were performed in K562 cells grown in glucose-free media. The results are summarized in Table 2 (values are the mean±S.D. (n=3)).

[6] = target: KDR (Homo sapiens (Human), UniProt P35968); assay: LanthaScreen Eu TR-FRET KDR competitive binding assay
[7] = tested on: K562 cells; assay: CellTiter-Glo cell viability assay in K562 cells (glucose-free media); type: cell-based; conditions: Homo sapiens, read-out: EC50 CellTiter Glo 24 h
Experimental: as §2, §3

[8] = mean±S.D. (n=3), ATP 8 μM, read-out: IC50 (nM) AMPK(α1)
[9] = read-out: EC50 CellTox Green 48 h, 48 h
[10] = read-out: IC50 (nM) KDR, mean±S.D. (n=3), competitive binding
[11] = read-out: EC50 CellTox Green 24 h, 24 h

Chain of AMPKα1 (Q13131 whole entry, looked up): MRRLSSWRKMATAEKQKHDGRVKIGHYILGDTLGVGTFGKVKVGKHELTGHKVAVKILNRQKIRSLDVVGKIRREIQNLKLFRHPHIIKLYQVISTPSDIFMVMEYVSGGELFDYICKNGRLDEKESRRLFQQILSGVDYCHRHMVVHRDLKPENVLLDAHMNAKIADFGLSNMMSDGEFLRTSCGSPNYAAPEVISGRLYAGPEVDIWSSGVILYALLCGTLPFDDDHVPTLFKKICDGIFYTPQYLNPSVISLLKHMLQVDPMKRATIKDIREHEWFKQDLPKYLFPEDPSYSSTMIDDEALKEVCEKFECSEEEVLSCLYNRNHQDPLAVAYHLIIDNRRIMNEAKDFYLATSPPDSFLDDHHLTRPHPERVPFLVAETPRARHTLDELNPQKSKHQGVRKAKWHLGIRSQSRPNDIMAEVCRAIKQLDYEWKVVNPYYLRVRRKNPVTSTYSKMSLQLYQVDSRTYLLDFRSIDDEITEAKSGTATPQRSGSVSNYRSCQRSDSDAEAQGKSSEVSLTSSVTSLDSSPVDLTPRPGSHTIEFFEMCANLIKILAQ
Chain of AMPKα1 (Q9Y478 whole entry partner, looked up): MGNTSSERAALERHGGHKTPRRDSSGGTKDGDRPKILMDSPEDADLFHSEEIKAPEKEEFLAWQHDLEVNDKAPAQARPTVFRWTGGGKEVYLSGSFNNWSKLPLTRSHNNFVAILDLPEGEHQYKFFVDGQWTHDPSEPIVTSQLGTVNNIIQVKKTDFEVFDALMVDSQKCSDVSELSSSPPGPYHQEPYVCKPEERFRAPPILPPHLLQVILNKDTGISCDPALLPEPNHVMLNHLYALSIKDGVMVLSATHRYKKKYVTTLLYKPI
Chain of AMPKα1 (P54619 whole entry partner, looked up): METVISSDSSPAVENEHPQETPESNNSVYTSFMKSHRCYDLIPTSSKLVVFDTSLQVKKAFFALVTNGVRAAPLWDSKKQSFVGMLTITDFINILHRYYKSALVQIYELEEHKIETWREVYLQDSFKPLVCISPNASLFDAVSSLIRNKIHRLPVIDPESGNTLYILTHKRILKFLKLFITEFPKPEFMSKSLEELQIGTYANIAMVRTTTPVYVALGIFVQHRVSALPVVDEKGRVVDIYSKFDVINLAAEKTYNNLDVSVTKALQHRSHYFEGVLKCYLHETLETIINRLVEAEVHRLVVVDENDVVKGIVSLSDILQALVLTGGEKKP
Chain of AMPK(α2) (P54646 whole entry, looked up): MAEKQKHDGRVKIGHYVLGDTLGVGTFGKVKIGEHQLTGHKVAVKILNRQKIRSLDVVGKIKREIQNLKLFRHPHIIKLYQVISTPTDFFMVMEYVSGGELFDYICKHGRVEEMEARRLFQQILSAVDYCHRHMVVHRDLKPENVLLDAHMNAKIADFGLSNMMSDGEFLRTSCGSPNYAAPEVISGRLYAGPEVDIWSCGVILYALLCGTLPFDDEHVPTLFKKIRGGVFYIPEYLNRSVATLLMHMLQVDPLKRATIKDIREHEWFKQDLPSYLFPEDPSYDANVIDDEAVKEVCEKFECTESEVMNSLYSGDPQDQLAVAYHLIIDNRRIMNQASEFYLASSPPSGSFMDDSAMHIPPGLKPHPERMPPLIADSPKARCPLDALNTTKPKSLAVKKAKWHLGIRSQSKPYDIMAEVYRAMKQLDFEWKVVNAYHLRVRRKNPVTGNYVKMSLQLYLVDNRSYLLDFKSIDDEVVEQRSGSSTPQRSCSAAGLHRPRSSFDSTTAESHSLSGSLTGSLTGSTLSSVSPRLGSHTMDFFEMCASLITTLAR
Chain of AMPK(α2) (Q9Y478 whole entry partner, looked up): as the sequence (Q9Y478 whole entry partner, looked up) above
Chain of AMPK(α2) (P54619 whole entry partner, looked up): as the sequence (P54619 whole entry partner, looked up) above
Chain of KDR (P35968 20-1356): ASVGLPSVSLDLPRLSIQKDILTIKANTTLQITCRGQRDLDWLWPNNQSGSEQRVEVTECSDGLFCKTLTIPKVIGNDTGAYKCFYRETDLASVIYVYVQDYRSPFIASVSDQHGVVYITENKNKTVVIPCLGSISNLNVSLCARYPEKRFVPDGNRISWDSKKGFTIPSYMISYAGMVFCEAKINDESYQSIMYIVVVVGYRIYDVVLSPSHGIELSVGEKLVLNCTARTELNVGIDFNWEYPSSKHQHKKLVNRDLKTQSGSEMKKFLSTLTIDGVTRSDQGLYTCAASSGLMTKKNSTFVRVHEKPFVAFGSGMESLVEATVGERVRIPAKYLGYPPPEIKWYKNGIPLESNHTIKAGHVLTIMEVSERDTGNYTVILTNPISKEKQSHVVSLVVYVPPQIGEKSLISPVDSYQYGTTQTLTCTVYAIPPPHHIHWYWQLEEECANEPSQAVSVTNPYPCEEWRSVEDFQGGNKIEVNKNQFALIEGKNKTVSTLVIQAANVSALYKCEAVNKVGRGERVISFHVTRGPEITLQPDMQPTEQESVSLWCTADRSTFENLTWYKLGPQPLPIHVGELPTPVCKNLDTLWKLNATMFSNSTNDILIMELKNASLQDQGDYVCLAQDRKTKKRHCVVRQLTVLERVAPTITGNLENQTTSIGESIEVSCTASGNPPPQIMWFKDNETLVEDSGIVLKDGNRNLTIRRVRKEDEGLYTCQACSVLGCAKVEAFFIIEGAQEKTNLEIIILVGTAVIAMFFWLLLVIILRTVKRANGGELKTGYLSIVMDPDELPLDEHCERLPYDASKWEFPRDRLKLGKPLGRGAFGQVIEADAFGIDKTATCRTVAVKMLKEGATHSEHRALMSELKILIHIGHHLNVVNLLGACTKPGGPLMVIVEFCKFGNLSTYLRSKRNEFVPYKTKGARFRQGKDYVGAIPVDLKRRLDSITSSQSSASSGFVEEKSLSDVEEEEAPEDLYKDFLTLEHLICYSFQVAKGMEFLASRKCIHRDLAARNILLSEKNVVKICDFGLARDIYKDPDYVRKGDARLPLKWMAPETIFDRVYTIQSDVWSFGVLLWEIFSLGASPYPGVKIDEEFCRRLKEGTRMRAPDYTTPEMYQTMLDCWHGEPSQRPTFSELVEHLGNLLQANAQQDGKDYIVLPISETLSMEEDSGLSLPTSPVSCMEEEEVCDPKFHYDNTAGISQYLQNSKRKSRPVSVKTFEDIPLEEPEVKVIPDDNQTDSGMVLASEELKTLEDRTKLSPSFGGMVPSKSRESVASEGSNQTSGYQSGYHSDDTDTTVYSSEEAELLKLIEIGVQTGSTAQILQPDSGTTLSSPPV

| SMILES | IC50 [2] [nM] | IC50 [3, 8] [nM] | IC50 [6, 10] [nM] | EC50 [5, 9] [nM] | also measured |
| --- | --- | --- | --- | --- | --- |
| CCN(CC)CCNC(=O)c1c(C)[nH]c(/C=C2\C(=O)Nc3ccc(CCO)cc32)c1C [Compound 65] | – | – | – | – | p-ACC level reduction across concentration range compared with sunitinib [1]: improvements in cellular AMPK inhibition over sunitinib at all concentrations apart from 50 μM |
| CCN(CC)CCNC(=O)c1c(C)[nH]c(/C=C2\C(=O)Nc3ccc(CCC(N)=O)cc32)c1C [Compound 67] | – | – | – | – | p-ACC level reduction across concentration range compared with sunitinib [1]: significant improvements in p-ACC level reduction with respect to sunitinib at both 3.125 mM and 12.5 mM |
| Cc1[nH]c(/C=C2\C(=O)Nc3ccc(F)cc32)c(C)c1C(=O)NCCN [Compound No. 4, (Z)—N-(2-Aminoethyl)-5-((5-fluoro-2-oxoindolin-3-ylidene)methyl)-2,4-dimethyl-1H-pyrrole-3-carboxamide] | 141 ± 33 | 393 ± 27 | – | – | – |
| Cc1[nH]c(/C=C2\C(=O)Nc3ccc(F)cc32)c(C)c1C(=O)NCCN(C)C [Compound No. 5, (Z)—N-(2-(Dimethylamino)ethyl)-5-((5-fluoro-2-oxoindolin-3-ylidene)methyl)-2,4-dimethyl-1H-pyrrole-3-carboxamide] | 50.4 ± 17.9 | 136 ± 16 | 493 ± 24 | 13030 ± 40 | EC50 [4]: 12600 ± 930 nM |
| CCNCCNC(=O)c1c(C)[nH]c(/C=C2\C(=O)Nc3ccc(F)cc32)c1C [Compound No. 6] | 61.4 ± 12.7 | 180 ± 24 | 505 ± 18 | 11900 ± 1580 | EC50 [7]: 15500 ± 480 nM; EC50 [4]: 13600 ± 1690 nM; EC50 [5, 11]: 12890 ± 110 nM |
| Cc1[nH]c(/C=C2\C(=O)Nc3ccc(F)cc32)c(C)c1C(=O)NCCCN(C)C [Compound No. 7, (Z)—N-(3-(Dimethylamino)propyl)-5-((5-fluoro-2-oxoindolin-3-ylidene)methyl)-2,4-dimethyl-1H-pyrrole-3-carboxamide] | 74.8 ± 3.1 | 221 ± 31 | – | – | – |
| CCN(CC)CCCNC(=O)c1c(C)[nH]c(/C=C2\C(=O)Nc3ccc(F)cc32)c1C [Compound No. 8, (Z)—N-(3-(Diethylamino)propyl)-5-((5-fluoro-2-oxoindolin-3-ylidene)methyl)-2,4-dimethyl-1H-pyrrole-3-carboxamide] | 38.6 ± 10.6 | 152 ± 22 | 480 ± 52 | 13270 ± 80 | EC50 [7]: 18000 ± 320 nM; EC50 [4]: 13500 ± 590 nM |
| CCN(CC)CCNC(=O)c1c(C)[nH]c(/C=C2\C(=O)Nc3ccc(CCOC)cc32)c1C [Compound No. 9, (Z)—N-(2-(Diethylamino)ethyl)-5-((5-(2-methoxyethyl)-2-oxoindolin-3-ylidene)methyl)-2,4-dimethyl-1H-pyrrole-3-carboxamide] | 96.6 ± 4.3 | 296 ± 16 | – | – | – |
| CCN(CC)CCNC(=O)c1c(C)[nH]c(/C=C2\C(=O)Nc3ccc(CCOC(C)=O)cc32)c1C [Compound No. 11, (Z)-2-(3-((4-((2-(Diethylamino)ethyl)carbamoyl)-3,5-dimethyl-1H-pyrrol-2-yl)methylene)-2-oxoindolin-5-yl)ethyl acetate] | 111 ± 21 | 418 ± 45 | – | – | – |
| CCN(CC)CCNC(=O)c1c(C)[nH]c(/C=C2\C(=O)Nc3ccc(CCN(C)C)cc32)c1C [Compound No. 12, (Z)—N-(2-(Diethylamino)ethyl)-5-((5-(2-(dimethylamino)ethyl)-2-oxoindolin-3-ylidene)methyl)-2,4-dimethyl-1H-pyrrole-3-carboxamide] | 154 ± 53 | – | – | – | IC50 ([3]; text value in μM, read-out: AMPKα1 IC50): 2100 ± 440 nM |
| CCN(CC)CCNC(=O)c1c(C)[nH]c(/C=C2\C(=O)Nc3ccc(CCN=[N+]=[N-])cc32)c1C [Compound No. 13, (Z)-5-((5-(2-Azidoethyl)-2-oxoindolin-3-ylidene)methyl)-N-(2-(diethylamino)ethyl)-2,4-dimethyl-1H-pyrrole-3-carboxamide] | 101 ± 20 | 139 ± 13 | – | 4810 ± 80 | EC50 [7]: 4860 ± 160 nM; EC50 [4]: 3830 ± 50 nM; IC50 ([6]; read-out: KDR IC50, values in μM): 2260 ± 110 nM |
| CCN(CC)CCNC(=O)c1c(C)[nH]c(/C=C2\C(=O)Nc3ccc(CCNC(C)=O)cc32)c1C [Compound No. 14, (Z)-5-((5-(2-Acetamidoethyl)-2-oxoindolin-3-ylidene)methyl)-N-(2-(diethylamino)ethyl)-2,4-dimethyl-1H-pyrrole-3-carboxamide] | 108 ± 17 | 184 ± 11 | 2160 ± 101 | – | – |
| CCN(CC)CCNC(=O)c1c(C)[nH]c(/C=C2\C(=O)Nc3ccc(C#N)cc32)c1C [Compound No. 17, (Z)-5-((5-Cyano-2-oxoindolin-3-ylidene)methyl)-N-(2-(diethylamino)ethyl)-2,4-dimethyl-1H-pyrrole-3-carboxamide] | 16.2 ± 7.4 | 93 ± 8 | 391 ± 22 | 13600 ± 350 | EC50 [7]: 19900 ± 1210 nM |
| CCN(CC)CCNC(=O)c1c(C)[nH]c(/C=C2\C(=O)Nc3ccc(CNC(N)=O)cc32)c1C [Compound No. 18, (Z)—N-(2-(Diethylamino)ethyl)-2,4-dimethyl-5-((2-oxo-5-(ureidomethyl)indolin-3-ylidene)methyl)-1H-pyrrole-3-carboxamide] | 83.6 ± 7 | 205 ± 52 | – | – | – |
| CCN(CC)CCNC(=O)c1c(C)[nH]c(/C=C2\C(=O)Nc3cc(C(C)C)ccc32)c1C [Compound No. 25, N-(2-(Diethylamino)ethyl)-5-((6-isopropyl-2-oxoindolin-3-ylidene)methyl)-2,4-dimethyl-1H-pyrrole-3-carboxamide] | – | – | – | – | inhibition at 20 µM ([3]; read-out: AMPK(α1) % inhibition at 20 μM): 70% |

Further lines, with some results ahead:

| IC50 [2] [nM] | IC50 [3, 8] [nM] | IC50 [6, 10] [nM] | SMILES | EC50 [5, 9] [nM] | also measured |
| --- | --- | --- | --- | --- | --- |
| 88.5 ± 7.1 | 246 ± 11 | – | CCN(CC)CCNC(=O)c1c(C)[nH]c(/C=C2\C(=O)Nc3ccccc32)c1C [Compound No. 19, (Z)—N-(2-(Diethylamino)ethyl)-2,4-dimethyl-5-((2-oxoindolin-3-ylidene)methyl)-1H-pyrrole-3-carboxamide] | – | – |
| 49.4 ± 22.1 | 240 ± 37 | 189 ± 7 | CCN(CC)CCNC(=O)c1c(C)[nH]c(/C=C2\C(=O)Nc3cc(F)ccc32)c1C [Compound No. 20, (Z)—N-(2-(Diethylamino)ethyl)-5-((6-fluoro-2-oxoindolin-3-ylidene)methyl)-2,4-dimethyl-1H-pyrrole-3-carboxamide] | 7150 ± 350 | EC50 [4]: 2850 ± 220 nM |
| 65.1 ± 12.3 | 217 ± 37 | 206 ± 7 | CCN(CC)CCNC(=O)c1c(C)[nH]c(/C=C2\C(=O)Nc3cc(Cl)ccc32)c1C [Compound No. 21, (Z)-5-((6-Chloro-2-oxoindolin-3-ylidene)methyl)-N-(2-(diethylamino)ethyl)-2,4-dimethyl-1H-pyrrole-3-carboxamide] | 4180 ± 410 | EC50 [7]: 3830 ± 460 nM; EC50 [5, 11]: 5240 ± 220 nM |
| 82.5 ± 27.9 | 208 ± 33 | – | CCN(CC)CCNC(=O)c1c(C)[nH]c(/C=C2\C(=O)Nc3cc(Br)ccc32)c1C [Compound No. 22, (Z)-5-((6-Bromo-2-oxoindolin-3-ylidene)methyl)-N-(2-(diethylamino)ethyl)-2,4-dimethyl-1H-pyrrole-3-carboxamide] | – | – |
| – | 348 ± 71 | – | CCc1ccc2c(c1)NC(=O)/C2=C\c1[nH]c(C)c(C(=O)NCCN(CC)CC)c1C [Compound No. 24, (Z)—N-(2-(Diethylamino)ethyl)-5-((6-ethyl-2-oxoindolin-3-ylidene)methyl)-2,4-dimethyl-1H-pyrrole-3-carboxamide] | – | – |

Source: patent publication US12435059B2, “AMP-activated protein kinase inhibitors and methods of making and using the same” (The Regents of the University of Colorado, priority 2019, dated 2025)
